Experiment: Inhibition of NLRP3 in mouse J774 macrophages assessed as reduction in Bacillus anthracis lethal toxin induced cell death

With `CC1(C)C(=O)C=C[C@]2(C)[C@H]3CC[C@@]4(C)[C@H](c5ccoc5)OC(=O)[C@H]5O[C@]54[C@]3(C)C=C[C@@H]12` the IC50 was 5 µM.

From BindingDB's records for doi:10.1021/acs.jmedchem.5b01091 (University of Manchester, 2016)
